Test results published in patent publication US9987242B2, “Treatment of Levodopa-induced Dyskinesias” (NORTHWESTERN UNIVERSITY, priority 2015, dated 2018).
Entries after “also recorded” stand apart in the source; their conditions may differ.

Experiments:
Format in all cases: cell-based, mice
[1] = test system: dSPN glutamatergic synapses; test: Spike-timing-dependent LTD induction (post-pre pairing) in dSPNs, ex vivo corticostriatal slices, perforated-patch or whole-cell recording
Excerpt: Male C57Bl/6 and FVB mice expressing tdTomato or eGFP under control of either the Drd1 or Drd2 receptor regulatory elements were used. All the mice used for the study were hemizygous for these transgenes. For some experiments, D1-tdTomato BAC mice were crossed with a transgenic line expressing Cre recombinase under control of the ChAT promoter. All mice were 8-10 weeks of age before stereotaxic surgery. Animal use procedures were reviewed and approved by the Northwestern Institutional Animal Care and Use Committee.
Slices were then transferred to a holding chamber containing aCSF. After an incubation period at 34° C. for 30 min, the slices were then kept in the holding chamber at the room temperature for another 30 min before use.
Individual slices were transferred to a recording chamber and were continuously perfused (2-3 ml min^−1) with aCSF for the duration of the experiment. Experiments were performed in the dorsolateral striatum at elevated temperature (30-31° C.).
All the recordings were made using a MultiClamp 700 A amplifier, and signals were filtered at 2 kHz and digitized at 10 kHz. Data were excluded when the series resistance changed >20% over the time course of the experiment. […] Capacitance current was continuously monitored during perforation by applying a 5-10 mV pulse from a holding potential of −70 mV. The amplifier bridge circuit was adjusted to compensate for series resistance and continuously monitored during recordings. Electrode capacitance was also compensated. Data were excluded when the input resistance (Ri) changed >20% over the time course of the experiment.
Data analysis was conducted with Igor Pro 6 (Wavemetrics, Lake Oswego, Oreg.) and Clampfit 9 (Molecular Devices). EPSP amplitude was calculated from 50-60 sweeps immediately before the start of induction and 20-30 min after the end of induction. The change in EPSP amplitude was calculated by averaging EPSP values after the induction and normalized to the average baseline EPSP amplitude. Compiled data were expressed as mean±s.e.m. Statistical tests were performed using Excel (Microsoft, Redmond, Wash.) and SigmaStat (Systat, San Jose, Calif.). Non-parametric Mann-Whitney or Wilcoxon tests were used to assess the experiment results, using a probability threshold of 0.05.
To determine if M4Rs were modulating synaptic plasticity, a spike-timing-dependent plasticity (STDP) paradigm was used. […] Once identified, neurons were monitored and controlled with perforated-patch recording to preserve intracellular signaling mechanisms and to allow stable, long-term monitoring of synaptic strength (FIG. 1A).
Synaptic plasticity was induced by pairing local stimulation of glutamatergic afferent fibers with postsynaptic spikes evoked by short bursts of intracellular current injection that were repeated at 5 Hz (FIGS. 1B, 4A).

[2] = test system: dSPN glutamatergic synapses; test: Spike-timing-dependent LTP induction (pre-post pairing) in dSPNs, ex vivo slices; settings: VU10010 5 μM
[3] = test system: dSPN glutamatergic synapses; test: Depotentiation of established LTP by low-frequency stimulation (2 Hz, 10 min) in dSPNs; settings: VU10010 5 μM
[4] = test system: NMDAR-mediated currents in dSPNs; test: NMDAR-mediated uEPSCs and EPSCs in dSPNs, whole-cell voltage clamp; settings: for amplitude of NMDAR-mediated uEPSCs: muscarine and VU10010 5 μM in the presence of SKF81297, glutamate uncaging
Experimental: For whole-cell voltage clamp recordings, patch pipettes were loaded with internal recording solution containing (mM): 120 CsMeSO3, 15 CsCl, 8 NaCl, 10 HEPES, 0.2 EGTA, 10 tetraethylammonium Chloride (TEA-Cl), 5 QX-314, 2 Mg-ATP, 0.3 Na-GTP; pH was adjusted to 7.25 with CsOH and osmolarity to ˜305 mOsm l^−1. All the recordings were made using a MultiClamp 700 A amplifier, and signals were filtered at 2 kHz and digitized at 10 kHz. Data were excluded when the series resistance changed >20% over the time course of the experiment. For perforated patch recordings, the internal recording solution comprised (in mM): 125 KMeSO4, 14 KCl, 2 MgCl2, 0.2 EGTA, 10 HEPES; pH was adjusted to 7.25 with NaOH and osmolarity to ˜280 mOsm l^−1. Amphotericin B was used to achieve electrical access through the perforated-patch method (Shen et al., 2007; 2008; herein incorporated by reference in their entireties). Capacitance current was continuously monitored during perforation by applying a 5-10 mV pulse from a holding potential of −70 mV. The amplifier bridge circuit was adjusted to compensate for series resistance and continuously monitored during recordings. Electrode capacitance was also compensated. Data were excluded when the input resistance (Ri) changed >20% over the time course of the experiment.
Glutamate uncaging was achieved using a Verdi/Mira (Coherent Laser Group, Santa Clara, Calif.) (Plotkin et al., 2014). 5 mM MNI-glutamate was superfused over the slice at 0.4 ml/hr using a syring pump and multi-barreled perfusion manifold (Cell MicroControls, Norfolk, Va.). The perfusion solution was (in mM): 124 NaCl, 3 KCl, 2 CaCl2, 1 NaH2PO4, 26 HEPES and 16.66 glucose, and also contained (in μM): 3 muscarine, 10 serine, 10 NBQX and 10 gabazine, plus or minus: 3 SKF81297 and/or 5 VU10010). Glutamate was uncaged adjacent to individual spines using 1 ms pulses of 720-725 nm light typically 10-20 mW in power at the sample plane. Photolysis power was tuned via a third Pockels cell modulator (Con Optics, Danbury, Conn.) to achieve uEPSCs≤5 pA. uEPSC amplitudes were measured from averaged (3-5 repetitions) traces. All uncaging experiments were performed in 0 mM Mg^2+-containing solutions.
To determine the situation in dSPNs, the effect of muscarine and VU10010 on NMDAR-mediated EPSCs evoked by uncaging glutamate on spine heads (uEPSCs) was examined in the presence of SKF81297.

Cc1cc(C)c2c(N)c(C(=O)NCc3ccc(Cl)cc3)sc2n1 [VU10010]
LTD induction in dSPNs (EPSP amplitude) ([1]; VU10010 5 μM, no D1R antagonist, 20 repetitions of pairing): did not lead to LTD induction | LTD induction in dSPNs (EPSP amplitude) ([1]; VU10010 5 μM, no D1R antagonist, 60 repetitions of pairing): LTD induction was robust; also recorded: LTD was induced | LTD induction in dSPNs (EPSP amplitude) ([1]; physostigmine 10 μM co-applied with VU10010 5 μM, 20 repetitions): LTD was induced | STDP LTP induction in dSPNs ([2]; dyskinetic (LID) mice): blocked the induction of STDP LTP; also recorded: LTP was disrupted | STDP LTP induction in dSPNs ([2]; naive mice): disrupted STDP LTP induction; also recorded: LTP induction was also blocked | depotentiation by LFS in dSPNs ([3]; dyskinetic (LID) mice, no D1R antagonist): restored depotentiation | depotentiation by LFS in dSPNs ([3]; naive mice): Depotentiation also was achieved; also recorded: promoted the reversal of established LTP | muscarine modulation of NMDAR-mediated EPSCs ([4]; muscarine 3 μM + VU10010 5 μM, local electrical stimulation): augmented | amplitude of NMDAR-mediated uEPSCs [4]: significantly reduced the amplitude | amplitude of NMDAR-mediated uEPSCs ([4]; listed as VU 10010): suppressed NMDAR-mediated uEPSC currents
